Measured values reported in patent US20250206828A1, “ANTI-ADENOSINE RECEPTOR (A2aR) ANTIBODIES AND THE USE THEREOF” (Adept Therapeutics Inc., priority 2022, published 2025).
One block for each molecule: values may come before it.

Columns and labels:
[1] = tested on: human PBMCs (CD4 T, CD8 T, NK cells); assay: Restoration of IFN-γ and IL-2 production of NECA-suppressed T cells and NK cells (intracellular cytokine staining); format: cell-based; conditions: NECA
Description: (§1) Two hundred thousand (2×10^5) human peripheral blood mononuclear cells (PBMCs) human PBMC in complete IMDM medium were aliquoted into each well in a 96-well plate and the cells in the 96-well plate were pre-incubated with antibodies or small molecule inhibitors at indicated concentration for 90 minutes, followed by addition of T cell activator anti-CD3/28 dynabeads (Gibco, Cat #11132D) at ratio of 1:4 (Beads: PBMC, v/v) and NECA (DiscoverX, Cat #92-1191, final concentration […]). Cells were cultured in an incubator at 37° C., 5% CO2 for 24 hours. Cells were then collected and stimulated with anti-CD3/28 dynabeads in the presence of GolgiPlug™ Protein Transport Inhibitor (BD Biosciences, Cat #555028) according to manufacturer's manual for 4 hours. Thereafter, cells were incubated with human TruStain FcX block (Biolegend, Cat #422302) and True-Stain monocyte blocker (Biolegend, Cat #426103) for 15 minutes according the manufacturer's manual, and cells were then stained with surface markers PE-anti-CD4 (Biolegend, Cat #300550), PerCP-cy5.5-anti-CD8 (Biolegend, Cat #301032), APC/cy7-anti-CD3 (Biolegend, Cat #300426) and PE/cy7-anti-CD56 (Biolegend, Cat #362509), PE/cy7-anti-CD56 (Biolegend, Cat #362509), BV711-anti-CD25 (Biolegend, Cat #302636) and BV605-anti-CD69 (Biolegend, Cat #31938 After wash with FACS buffer, cells were stained with BV421-anti-IFN-γ (BD Bioscience, Cat #562988) and APC anti-IL-2 (BD Bioscience, cat #551383) using intracellular cytokine staining kit (BD Biosciences, cat #555028) following manufacturer's instruction. Stained samples were analyzed on FACSAria III machine. Data were analyzed using Flowjo software.

[2] = tested on: human PBMCs (CD4 and CD8 T cells); assay: Restoration of CD25 and CD69 activation markers on NECA-suppressed CD4 and CD8 T cells; format: cell-based
Description: as §1

[3] = biological target: T1, human A2aR-expressing CHO cells (Homo sapiens, UniProt P29274); assay: pH-sensitive dye (Zenon pHrodo iFL RED) based internalization assay; format: cell-based; conditions: 24 hours
T1 construct: expressed in transfected cells; host or cells: CHO
T1 sequence (P29274 whole entry): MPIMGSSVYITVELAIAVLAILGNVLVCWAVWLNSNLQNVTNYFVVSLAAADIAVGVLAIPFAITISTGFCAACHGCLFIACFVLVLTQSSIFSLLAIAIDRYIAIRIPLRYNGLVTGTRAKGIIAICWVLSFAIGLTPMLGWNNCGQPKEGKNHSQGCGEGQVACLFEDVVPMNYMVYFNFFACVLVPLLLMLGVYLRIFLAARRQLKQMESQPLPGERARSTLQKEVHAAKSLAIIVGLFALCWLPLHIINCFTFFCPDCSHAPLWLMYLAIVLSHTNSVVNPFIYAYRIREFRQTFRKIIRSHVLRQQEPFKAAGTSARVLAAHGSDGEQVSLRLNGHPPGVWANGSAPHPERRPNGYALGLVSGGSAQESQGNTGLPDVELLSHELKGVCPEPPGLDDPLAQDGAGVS
Source text: The Invitrogen™ Zenon™ pHrodo™ iFL RED human IgG Labeling Reagents (Cat. Z25612) Z25612) is low-pH sensitive dye and was used to determine the internalizing properties of the exemplary anti-A2aR antibodies following manufacture's instruction. The internalization of antibodies coupled with the Zenon™ pHrodo™ iFL RED human IgG Labeling reagents increase the fluorescence signal at low pH intracellular compartment in a cell, providing a method for visualizing internalization under fluorescent microscopy.
Twenty-five microliters (25 μL) of 4× working solution of Zenon™ pHrodo™ iFL IgG Labeling Reagent were also prepared in freestyle CHO expression medium and then added to each well of a 96-well plate containing antibodies. The solutions in the 96-well plate were mixed and incubated for 5 minutes at room temperature to allow the labeling complexes to form. Afterwards, fifty microliters (50 μl) of 2×10^6/ml human A2aR-expressing CHO cells were added to each well containing labeled antibodies. Cells were then incubated with the labeling complex for 24 hours under standard cell culture conditions. Cells were analyzed under immunofluorescent microscope (Invitrogen EVOS cell imaging system M5000) to visualize the internalization of antibodies by cells. Internalization of antibody was imaged using EVOS imaging systems (Invitrogen).

[4] = biological target: T2, human adenosine A2A receptor (A2aR) (human, UniProt P29274 1-412); assay: flow cytometry on PBMC, donor human 1, isotype control
T2 sequence (P29274 whole entry): as above

[5] = biological target: cynomolgus adenosine A2A receptor (A2aR) (cynomolgus); assay: flow cytometry on PBMC, donor Cynomolgus 1, isotype control
[6] = biological target: cynomolgus adenosine A2A receptor (A2aR) (cynomolgus); assay: flow cytometry on PBMC, donor Cynomolgus 2, isotype control
[7] = biological target: T2, human adenosine A2A receptor (A2aR); assay: flow cytometry on PBMC, donor human 2, isotype control
[8] = biological target: T2, human adenosine A2A receptor (A2aR); assay: flow cytometry titration, HEK293-hA2aR cells, purified antibody
[9] = biological target: T2, human adenosine A2A receptor (A2aR); assay: flow cytometry, HEK293-hA2aR cells, supernatant 1 ug/ml, average of quadruplicate
[10] = biological target: T2, human adenosine A2A receptor (A2aR); assay: cell-based or functional assay

induction of internalization (pHrodo fluorescence microscopy, FIG. 3) [3]: did not induce internalization
Molecule: Cc1ccc(-c2nc(N)nc3c2nnn3Cc2cccc(CO[C@H]3CCOC3)n2)o1 [CPI-444]
% of cells IFNγ+, CD4 T cells ([1]; test substance 2 μg/ml): 3.66%
% of cells IFNγ+, CD8 T cells ([1]; test substance 2 μg/ml): 11.6%
% of cells IFNγ+, NK cells ([1]; test substance 2 μg/ml): 15.1%
% of cells IL-2+, CD4 T cells ([1]; test substance 2 μg/ml): 12.7%
% of cells IL-2+, CD8 T cells ([1]; test substance 2 μg/ml): 3.05%
% of cells CD25+, CD4 T cells ([2]; test substance 2 μg/ml): 62.9%
% of cells CD25+, CD8 T cells ([2]; test substance 2 μg/ml): 35.9%
% of cells CD69+, CD4 T cells ([2]; test substance 2 μg/ml): 52.3%
% of cells CD69+, CD8 T cells ([2]; test substance 2 μg/ml): 52.3%

% of A2aR+ CD4+ T cells [4]: 0.083%
% of A2aR+ CD8+ T cells [4]: 0.005%
% of A2aR+ NK cells [4]: 0.21%
% of A2aR+ NKT cells [4]: 0.11%
% of A2aR+ CD4+ T cells [5]: 0.086%
% of A2aR+ CD8+ T cells [5]: 0.009%
% of A2aR+ NK cells [5]: 0.46%
% of A2aR+ NKT cells [5]: 0.22%
% of A2aR+ CD4+ T cells [6]: 0.099%
% of A2aR+ CD8+ T cells [6]: 0.007%
% of A2aR+ NK cells [6]: 0.42%
% of A2aR+ NKT cells [6]: 0.045%
% of A2aR+ CD4+ T cells [7]: 0.012%
% of A2aR+ CD8+ T cells [7]: 0.002%
% of A2aR+ NK cells [7]: 0.029%
% of A2aR+ NKT cells [7]: 0.058%
Molecule: Anti-HEL isotype control (BioIntron) (antibody)

induction of internalization (pHrodo fluorescence microscopy, FIG. 3) [3]: did not induce internalization
Molecule: Cc1c(C#N)cccc1-c1cc(-c2cn(Cc3cccc(C(C)(C)O)n3)nn2)nc(N)n1 [AB928]
% of cells IFNγ+, CD4 T cells ([1]; test substance 1 μg/ml): 4.07%
% of cells IFNγ+, CD8 T cells ([1]; test substance 1 μg/ml): 14.4%
% of cells IFNγ+, NK cells ([1]; test substance 1 μg/ml): 15%
% of cells IL-2+, CD4 T cells ([1]; test substance 1 μg/ml): 13.1%
% of cells IL-2+, CD8 T cells ([1]; test substance 1 μg/ml): 3.15%
% of cells CD25+, CD4 T cells ([2]; test substance 1 μg/ml): 59.7%
% of cells CD25+, CD8 T cells ([2]; test substance 1 μg/ml): 32.7%
% of cells CD69+, CD4 T cells ([2]; test substance 1 μg/ml): 57.6%
% of cells CD69+, CD8 T cells ([2]; test substance 1 μg/ml): 55.3%

EC50 [8]: 0.48 nM
MFI [9]: 1920 MFI
IC50 of blocking activity, cAMP-Glo, 300 nM NECA, HEK293-hA2aR cells, supernatant (average of triplicate) [10]: 1 nM
B1: 3F8-12E9 (antibody, from another filing, V domains shown)
VH: QVQLQQPGTELVKPGAPVKLSCKASGFTFTRYWMNWVKQRPGRGLEWIGRIDPSDSETHYNHKFWGKATLTVDKSSSTAYIQLNSLTSEDSAVYYCLRSLYGKGDYWGQGTTLTVSS
VL: DVLMTQTPLSLSVGLGDQASISCRSSQSIVHSNGNTYLEWYLQRPGQSPKLLIYKVSNRFSGVPDRFSGSGSGTDFTLKISRVEAEDLGVYYCYQGSHVPLTFGSGTKLEIK
